The text below walks through data of US8981047B2 (Indiana University Research and Technology Corporation, priority 2007, dated 2015).

Square brackets hold non-standard residues; d marks the D form. Peptide text beside a SMILES is read from it. Abu(4-SO3H) = N[C@@H](CCS(=O)(=O)O)C(=O)O; PhLac = O=C(O)[C@@H](O)Cc1ccccc1

Test [1] deals with T1, glucagon receptor (Homo sapiens, UniProt P47871). Nature of the test: Glucagon receptor binding assay (scintillation proximity competition with 125I-glucagon). As to conditions: 6-29 shortened glucagon amide backbone. For orientation: SPA uses beads or plates that emit light when radiolabelled molecules are held near them.
Test [2] deals with T1, glucagon receptor. The test is described as follows: cAMP inhibition (antagonism of glucagon-induced cAMP production). It counts as cell-based. Further details: expressed in transfected cells; host or cells: HEK293. To be noted: Tables 5-12 and FIGS. 4, 5, 7, 8. For orientation: Changes in cAMP serve as a functional read-out for many G protein-coupled receptors.
Another test concerns the target GLP-1 receptor (Homo sapiens, UniProt P43220). Nature of the test: cAMP induction, firefly luciferase reporter assay in HEK293 cells. It counts as cell-based. As to conditions: Table 13; cells expressing the human GLP-1 receptor. A general note: In a reporter assay the amount or activity of a reporter protein is the signal.
Test [3] concerns the target T1, glucagon receptor. Described as above. Further details: expressed in transfected cells; host or cells: HEK293. The format is cell-based. To be noted: read-out: cAMP Induction Glucagon Receptor EC50; Table 2.

T1 sequence (P47871 26-477): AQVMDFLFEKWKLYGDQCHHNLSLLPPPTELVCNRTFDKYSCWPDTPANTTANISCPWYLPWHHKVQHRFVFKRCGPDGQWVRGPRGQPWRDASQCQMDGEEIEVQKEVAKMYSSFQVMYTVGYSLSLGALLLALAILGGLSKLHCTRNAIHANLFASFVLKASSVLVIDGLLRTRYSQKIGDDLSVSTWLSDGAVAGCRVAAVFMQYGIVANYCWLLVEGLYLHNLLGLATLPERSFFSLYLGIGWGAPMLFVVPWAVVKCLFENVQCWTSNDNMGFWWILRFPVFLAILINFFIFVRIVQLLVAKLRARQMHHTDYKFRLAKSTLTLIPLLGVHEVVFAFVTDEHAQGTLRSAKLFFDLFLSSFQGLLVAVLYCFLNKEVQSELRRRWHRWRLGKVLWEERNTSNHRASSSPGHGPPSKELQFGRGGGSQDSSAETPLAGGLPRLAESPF
Chain of GLP-1 receptor (P43220 24-463): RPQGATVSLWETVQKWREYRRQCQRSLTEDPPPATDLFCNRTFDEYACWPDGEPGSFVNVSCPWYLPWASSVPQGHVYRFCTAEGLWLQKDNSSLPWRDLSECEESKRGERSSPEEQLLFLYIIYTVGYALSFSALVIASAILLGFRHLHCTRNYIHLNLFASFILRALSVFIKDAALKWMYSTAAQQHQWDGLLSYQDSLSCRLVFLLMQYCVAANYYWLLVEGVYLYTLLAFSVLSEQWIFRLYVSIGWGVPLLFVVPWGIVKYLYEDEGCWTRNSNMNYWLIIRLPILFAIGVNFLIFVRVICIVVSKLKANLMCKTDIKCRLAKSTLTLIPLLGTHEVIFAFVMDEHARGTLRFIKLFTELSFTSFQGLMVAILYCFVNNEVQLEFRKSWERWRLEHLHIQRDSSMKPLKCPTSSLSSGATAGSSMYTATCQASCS

As to “PLA6 analog: native glucagon with first 5 residues deleted and N-terminal amino group of Phe replaced with hydroxyl (phenyl-lactic acid); SEQ ID NO: 39”, the “increase of affinity for the glucagon receptor relative to the native Phe6 analog” value in the test with glucagon receptor [1] is “threefold”. On to `CSCC[C@H](NC(=O)[C@H](CC(C)C)NC(=O)[C@H](Cc1c[nH]c2ccccc12)NC(=O)[C@H](CCC(N)=O)NC(=O)[C@@H](NC(=O)[C@H](Cc1ccccc1)NC(=O)[C@H](CC(=O)O)NC(=O)[C@H](CCC(N)=O)NC(=O)[C@H](C)NC(=O)[C@H](CCCNC(=N)N)NC(=O)[C@H](CCCNC(=N)N)NC(=O)[C@H](CO)NC(=O)[C@H](CC(=O)O)NC(=O)[C@H](CC(C)C)NC(=O)[C@H](Cc1ccc(O)cc1)NC(=O)[C@H](CCCCN)NC(=O)[C@H](CO)NC(=O)[C@H](Cc1ccc(O)cc1)NC(=O)[C@H](CCS(=O)(=O)O)NC(=O)[C@H](CO)NC(=O)[C@@H](NC(=O)[C@H](Cc1ccccc1)NC(=O)[C@@H](NC(=O)CN)[C@@H](C)O)[C@@H](C)O)C(C)C)C(=O)N[C@@H](CC(N)=O)C(=O)N[C@H](C(N)=O)[C@@H](C)O` [[hCys^9(SO3H)]Glucagon(aa4-29)-NH2, [hCys(SO3H)9]glucagon (4-29) amide] (H-GTFTS[Abu(4-SO3H)]YSKYLDSRRAQDFVQWLMNT-NH2; N-terminus assumed), for which, on glucagon receptor [2], the “glucagon antagonism in the cAMP bioassay, result in words” value (from here on “glucagon antagonism”) is “full antagonists”.

For the compound `CSCC[C@H](NC(=O)[C@H](CC(C)C)NC(=O)[C@H](Cc1c[nH]c2ccccc12)NC(=O)[C@H](CCC(N)=O)NC(=O)[C@@H](NC(=O)[C@H](Cc1ccccc1)NC(=O)[C@H](CC(=O)O)NC(=O)[C@H](CCC(N)=O)NC(=O)[C@H](C)NC(=O)[C@H](CCCNC(=N)N)NC(=O)[C@H](CCCNC(=N)N)NC(=O)[C@H](CO)NC(=O)[C@H](CC(=O)O)NC(=O)[C@H](CC(C)C)NC(=O)[C@H](Cc1ccc(O)cc1)NC(=O)[C@H](CCCCN)NC(=O)[C@H](CO)NC(=O)[C@H](Cc1ccc(O)cc1)NC(=O)[C@H](CCS(=O)(=O)O)NC(=O)[C@H](CO)NC(=O)[C@@H](NC(=O)[C@H](Cc1ccccc1)NC(=O)[C@@H](N)[C@@H](C)O)[C@@H](C)O)C(C)C)C(=O)N[C@@H](CC(N)=O)C(=O)N[C@H](C(N)=O)[C@@H](C)O` [[hCys^9(SO3H)]Glucagon(aa5-29)-NH2, [hCys(SO3H)9]glucagon (5-29) amide] (H-TFTS[Abu(4-SO3H)]YSKYLDSRRAQDFVQWLMNT-NH2; N-terminus assumed), the “glucagon antagonism” value was “pure potent antagonism, without any measurable agonist activity” at glucagon receptor [2] (listed as 5-29 hCys9); “more potent and effective than the literature standards” at glucagon receptor [2] (listed as 5-29 hCys9-based glucagon antagonist); “full antagonists” on glucagon receptor [2] (listed as 5-29 hCys(SO3H)^9). `CSCC[C@H](NC(=O)[C@H](CC(C)C)NC(=O)[C@H](Cc1c[nH]c2ccccc12)NC(=O)[C@H](CCC(N)=O)NC(=O)[C@@H](NC(=O)[C@H](Cc1ccccc1)NC(=O)[C@H](CC(=O)O)NC(=O)[C@H](CCC(N)=O)NC(=O)[C@H](C)NC(=O)[C@H](CCCNC(=N)N)NC(=O)[C@H](CCCNC(=N)N)NC(=O)[C@H](CO)NC(=O)[C@H](CC(=O)O)NC(=O)[C@H](CC(C)C)NC(=O)[C@H](Cc1ccc(O)cc1)NC(=O)[C@H](CCCCN)NC(=O)[C@H](CO)NC(=O)[C@H](Cc1ccc(O)cc1)NC(=O)[C@H](CCC(=O)O)NC(=O)[C@H](CO)NC(=O)[C@@H](NC(=O)[C@@H](O)Cc1ccccc1)[C@@H](C)O)C(C)C)C(=O)N[C@@H](CC(N)=O)C(=O)N[C@H](C(N)=O)[C@@H](C)O` [[PLA6, E9]Glucagon(aa6-29)-NH2] (H-[PhLac]TSEYSKYLDSRRAQDFVQWLMNT-NH2): the “GLP-1 agonism EC50” value at GLP-1 receptor was “No agonism”.

For `CSCC[C@H](NC(=O)[C@H](CC(C)C)NC(=O)[C@H](Cc1c[nH]c2ccccc12)NC(=O)[C@H](CCC(N)=O)NC(=O)[C@@H](NC(=O)[C@H](Cc1ccccc1)NC(=O)[C@H](CC(=O)O)NC(=O)[C@H](CCC(N)=O)NC(=O)[C@H](C)NC(=O)[C@H](CCCNC(=N)N)NC(=O)[C@H](CCCNC(=N)N)NC(=O)[C@H](CO)NC(=O)[C@H](CC(=O)O)NC(=O)[C@H](CC(C)C)NC(=O)[C@H](Cc1ccc(O)cc1)NC(=O)[C@H](CCCCN)NC(=O)[C@H](CO)NC(=O)[C@H](Cc1ccc(O)cc1)NC(=O)[C@H](CCS(=O)(=O)O)NC(=O)[C@H](CO)NC(=O)[C@@H](NC(=O)[C@@H](N)Cc1ccccc1)[C@@H](C)O)C(C)C)C(=O)N[C@@H](CC(N)=O)C(=O)N[C@H](C(N)=O)[C@@H](C)O` [[hCys^9(SO3H)]Glucagon(aa6-29)-NH2] (H-FTS[Abu(4-SO3H)]YSKYLDSRRAQDFVQWLMNT-NH2), the “glucagon antagonism” value was “pure potent antagonism, without any measurable agonist activity” on glucagon receptor [2] (listed as 6-29 hCys9) and “full antagonists” at glucagon receptor [2] (listed as 6-29 hCys(SO3H)^9).

Consider `CC(C)C[C@H](NC(=O)[C@H](Cc1ccc(O)cc1)NC(=O)[C@H](CCCCN)NC(=O)[C@H](CO)NC(=O)[C@H](Cc1ccc(O)cc1)NC(=O)[C@H](CCS(=O)(=O)O)NC(=O)[C@H](CO)NC(=O)[C@@H](NC(=O)[C@H](Cc1ccccc1)NC(=O)[C@@H](NC(=O)[C@H](CC(C)C)NC(=O)[C@H](CCC(N)=O)NC(=O)[C@@H](N)CO)[C@@H](C)O)[C@@H](C)O)C(=O)N[C@@H](CC(=O)O)C(=O)N[C@@H](CO)C(=O)N[C@@H](CCCNC(=N)N)C(=O)N[C@@H](CCCNC(=N)N)C(=O)N[C@@H](C)C(=O)N[C@@H](CCC(N)=O)C(=O)N[C@@H](CC(=O)O)C(=O)N[C@@H](Cc1ccccc1)C(=O)N[C@H](C(=O)N[C@@H](CCC(N)=O)C(=O)N[C@@H](Cc1ccccc1)C(=O)N[C@@H](CC(C)C)C(=O)N[C@@H](CC(C)C)C(=O)N[C@@H](CC(N)=O)C(=O)N[C@H](C(N)=O)[C@@H](C)O)C(C)C` [[desHis^1, Leu^4, hCys^9(SO3-), Phe^25, Leu^27] Glucagon-NH2] (H-SQLTFTS[Abu(4-SO3H)]YSKYLDSRRAQDFVQFLLNT-NH2; N-terminus assumed), for which the “glucagon antagonism” value at glucagon receptor [2] is given as “some level of antagonism”.

With `CC(C)C[C@H](NC(=O)[C@H](Cc1ccc(O)cc1)NC(=O)[C@H](CCCCN)NC(=O)[C@H](CO)NC(=O)[C@H](Cc1ccc(O)cc1)NC(=O)[C@H](CCS(=O)(=O)O)NC(=O)[C@H](CO)NC(=O)[C@@H](NC(=O)[C@@H](NC(=O)CNC(=O)[C@H](CCC(N)=O)NC(=O)[C@@H](N)CO)[C@@H](C)O)[C@@H](C)O)C(=O)N[C@@H](CC(=O)O)C(=O)N[C@@H](CO)C(=O)N[C@@H](CCCNC(=N)N)C(=O)N[C@@H](CCCNC(=N)N)C(=O)N[C@@H](C)C(=O)N[C@@H](CCC(N)=O)C(=O)N[C@@H](CC(=O)O)C(=O)N[C@@H](Cc1ccccc1)C(=O)N[C@H](C(=O)N[C@@H](CCC(N)=O)C(=O)N[C@@H](Cc1ccccc1)C(=O)N[C@@H](CC(C)C)C(=O)N[C@@H](CC(C)C)C(=O)N[C@@H](CC(N)=O)C(=O)N[C@H](C(N)=O)[C@@H](C)O)C(C)C` [[desHis^1, desPhe^6, hCys^9(SO3-), Phe^25, Leu^27] Glucagon-NH2] (H-SQGTTS[Abu(4-SO3H)]YSKYLDSRRAQDFVQFLLNT-NH2; N-terminus assumed), at glucagon receptor [2], the “glucagon antagonism” value is given as “some level of antagonism”. One may read the EC50 as the concentration giving half of the maximal effect. Turning to Oxyntomodulin C24 PEG 20 K, the EC50 with glucagon receptor [3] was determined as 970 ± 40 pM.
